Reference: US10322110B2, “Imidazole-based antimicrobial agents” (priority 2014, dated 2019)
≈ marks a conversion by molar mass, not a printed value. Where two headings read alike, the source gives them in different places.

Assays:
Assay type in all cases: cell-based
[1] = test system: Staphylococcus aureus MSSA (Newman); test: broth microdilution MIC assay, Staphylococcus aureus MSSA (Newman); details: for MIC: Staphylococcus aureus; for Antibacterial activity Staphylococcus aureus (MSSA): MIC100 class score, broth microdilution
[2] = test system: Staphylococcus epidermidis (PCI 1200, ATCC12228); test: broth microdilution MIC assay, Staphylococcus epidermidis; details: ATCC12228, read-out: Antibacterial activity SE (Staphylococcus epidermidis)
[3] = test system: Human hepatocytes (HepaRG cells); test: human cytotoxicity assay in vitro (CellTiter-Glo), hepatocytes; details: cytotoxicity class
[4] = test system: Staphylococcus aureus MRSA (COL); test: broth microdilution MIC assay, Staphylococcus aureus MRSA (COL); details: for MIC: Staphylococcus aureus, MRSA; for Antibacterial activity Staphylococcus aureus (MRSA): MIC100 class score, broth microdilution
[5] = test system: Streptococcus pneumoniae (Chester, ATCC49619); test: broth microdilution MIC assay, Streptococcus pneumoniae; details: MIC100 class score, 24 h
[6] = 24 h, read-out: Antibacterial activity Staphylococcus aureus (MSSA)
[7] = read-out: Antibacterial activity MSSA (Staphylococcus aureus MSSA)
[8] = 24 h, read-out: Antibacterial activity Staphylococcus aureus (MRSA)
[9] = read-out: Antibacterial activity MRSA (Staphylococcus aureus MRSA)

## Cc1[nH]c(-c2ccc(-c3ccccc3Cl)o2)nc1-c1ccccc1 [Compound 3]
[1]; [6]
  MIC: 3 to 10 µg/mL (≈ 8.96 to 29.9 µM)
[1]; [7]
  MIC: 3 to 10 µg/mL (≈ 8.96 to 29.9 µM)
[2]
  MIC: 11 to 201 µg/mL (≈ 32.9 to 600 µM)
[3]
  cytotoxicity cell line H (hepatocytes): 3
[4]; [8]
  MIC: 11 to 201 µg/mL (≈ 32.9 to 600 µM)
[4]; [9]
  MIC: 11 to 201 µg/mL (≈ 32.9 to 600 µM)

## Cc1nc(-c2ccc(-c3cccc(Cl)c3)o2)[nH]c1-c1ccccc1 [Compound 4]
[1]; [6]
  MIC: 1 to 3 µg/mL (≈ 2.99 to 8.96 µM)
[1]; [7]
  MIC: 1 to 3 µg/mL (≈ 2.99 to 8.96 µM)
[2]
  MIC: 3 to 10 µg/mL (≈ 8.96 to 29.9 µM)
[4]; [8]
  MIC: 11 to 201 µg/mL (≈ 32.9 to 600 µM)
[4]; [9]
  MIC: 11 to 201 µg/mL (≈ 32.9 to 600 µM)

## Cc1[nH]c(-c2cc(C)n(-c3ccc(Cl)cc3)c2C)nc1-c1ccccc1 [Compound 8]
[3]
  cytotoxicity cell line H (hepatocytes): 2
[4]; [9]
  MIC: 20 to 50 µg/mL (≈ 55.3 to 138 µM)
[5]
  Antibacterial activity Streptococcus pneumoniae: 3 (MIC100 of 2-5 μg/ml)

## Cc1[nH]c(-c2cc(C)n(-c3ccc(F)cc3F)c2C)nc1-c1ccccc1 [Compound 9]
[3]
  cytotoxicity cell line H (hepatocytes): 3
[4]; [9]
  MIC: 20 to 50 µg/mL (≈ 55 to 138 µM)
[5]
  Antibacterial activity Streptococcus pneumoniae: 2 (MIC100 of 6-10 μg/ml)

## Cc1[nH]c(-c2cc(C)n(-c3ccc(F)c(F)c3F)c2C)nc1-c1ccccc1 [Compound 10]
[3]
  cytotoxicity cell line H (hepatocytes): 3
[5]
  Antibacterial activity Streptococcus pneumoniae: 2 (MIC100 of 6-10 μg/ml)

## Cc1[nH]c(-c2ccc(-c3ccccc3C(F)(F)F)o2)nc1-c1cccc(Cl)c1 [Compound 22]
[1]; 24 h
  Antibacterial activity Staphylococcus aureus (MSSA): 2 (MIC100 of 11-201 μg/ml)
[1]; [7]
  MIC: 11 to 201 µg/mL (≈ 27.3 to 499 µM)
[5]
  Antibacterial activity Streptococcus pneumoniae: 3 (MIC100 of 2-5 μg/ml)

## Cc1nc(-c2ccc(-c3ccccc3OC(F)(F)F)o2)[nH]c1-c1ccc(Br)cc1 [Compound 29]
[1]; 24 h
  Antibacterial activity Staphylococcus aureus (MSSA): 3 (MIC100 of 3-10 μg/ml)
[1]; [7]
  MIC: 3 to 10 µg/mL (≈ 6.48 to 21.6 µM)
[4]; 24 h
  Antibacterial activity Staphylococcus aureus (MRSA): 2 (MIC100 of 11-201 μg/ml)
[4]; [9]
  MIC: 11 to 201 µg/mL (≈ 23.7 to 434 µM)
[5]
  Antibacterial activity Streptococcus pneumoniae: 3 (MIC100 of 2-5 μg/ml)

## COc1ccc(-c2ccc(-c3nc(C)c(-c4ccccc4)[nH]3)o2)c(C(F)(F)F)c1 [Compound 31]
[1]; [6]
  MIC: 3 to 10 µg/mL (≈ 7.53 to 25.1 µM)
[1]; [7]
  MIC: 3 to 10 µg/mL (≈ 7.53 to 25.1 µM)
[3]
  cytotoxicity cell line H (hepatocytes): 3
[4]; [8]
  MIC: 3 to 10 µg/mL (≈ 7.53 to 25.1 µM)
[4]; [9]
  MIC: 3 to 10 µg/mL (≈ 7.53 to 25.1 µM)

## Cc1[nH]c(-c2ccn(-c3ccccc3C(F)(F)F)c2)nc1-c1ccccc1 [Compound 33]
[1]; 24 h
  Antibacterial activity Staphylococcus aureus (MSSA): 3 (MIC100 of 3-10 μg/ml)
[1]; [7]
  MIC: 3 to 10 µg/mL (≈ 8.17 to 27.2 µM)
[2]
  MIC: 11 to 201 µg/mL (≈ 29.9 to 547 µM)
[4]; [9]
  MIC: 20 to 50 µg/mL (≈ 54.4 to 136 µM)
[5]
  Antibacterial activity Streptococcus pneumoniae: 2 (MIC100 of 6-10 μg/ml)

## Cc1[nH]c(-c2cc(C)n(-c3cccc(C(F)(F)F)c3)c2C)nc1-c1ccccc1 [Compound 36]
[3]
  cytotoxicity cell line H (hepatocytes): 3
[4]; 24 h
  Antibacterial activity Staphylococcus aureus (MRSA): 2 (MIC100 of 11-201 μg/ml)
[4]; [9]
  MIC: 11 to 201 µg/mL (≈ 27.8 to 508 µM)
[5]
  Antibacterial activity Streptococcus pneumoniae: 3 (MIC100 of 2-5 μg/ml)

## Cc1[nH]c(-c2ccc(-c3cc(C(F)(F)F)ccc3Cl)o2)nc1-c1ccccc1 [Compound 40]
[3]
  cytotoxicity cell line H (hepatocytes): 2

## Cc1[nH]c(-c2ccc(-c3ccc(OC(F)(F)F)c(Cl)c3)o2)nc1-c1ccc(Cl)cc1 [Compound 50]
[1]; [6]
  MIC: 3 to 10 µg/mL (≈ 6.62 to 22.1 µM)
[1]; [7]
  MIC: 3 to 10 µg/mL (≈ 6.62 to 22.1 µM)
[2]
  MIC: 20 to 50 µg/mL (≈ 44.1 to 110 µM)
[4]; [8]
  MIC: 11 to 201 µg/mL (≈ 24.3 to 443 µM)
[4]; [9]
  MIC: 11 to 201 µg/mL (≈ 24.3 to 443 µM)

## Cc1ccc(-c2ccc(-c3nc(-c4ccccc4)c(C)[nH]3)o2)cc1 [Compound 52]
[3]
  cytotoxicity cell line H (hepatocytes): 3
[4]; [8]
  MIC: 20 to 50 µg/mL (≈ 63.6 to 159 µM)

## CCc1ccc(-c2ccc(-c3nc(-c4ccccc4)c(C)[nH]3)o2)cc1 [Compound 53]
[1]; [6]
  MIC: 3 to 10 µg/mL (≈ 9.13 to 30.4 µM)
[1]; [7]
  MIC: 3 to 10 µg/mL (≈ 9.13 to 30.4 µM)
[3]
  cytotoxicity cell line H (hepatocytes): 3
[4]; [8]
  MIC: 20 to 50 µg/mL (≈ 60.9 to 152 µM)
[4]; [9]
  MIC: 20 to 50 µg/mL (≈ 60.9 to 152 µM)

## Cc1[nH]c(-c2cc(C)n(-c3ccc(C(C)C)cc3)c2C)nc1-c1ccccc1 [Compound 58]
[3]
  cytotoxicity cell line H (hepatocytes): 3
[4]; [9]
  MIC: 20 to 50 µg/mL (≈ 54.1 to 135 µM)

## Cc1[nH]c(-c2cc(C)n(-c3ccc4c(c3)CCC4)c2C)nc1-c1ccccc1 [Compound 59]
[3]
  cytotoxicity cell line H (hepatocytes): 2
[5]
  Antibacterial activity Streptococcus pneumoniae: 3 (MIC100 of 2-5 μg/ml)

## Cc1ccccc1-c1ccc(-c2nc(-c3ccccc3)c(C)[nH]2)o1 [Compound 61]
[3]
  cytotoxicity cell line H (hepatocytes): 3

## Cc1cccc(C)c1-c1ccc(-c2nc(-c3ccccc3)c(C)[nH]2)o1 [Compound 62]
[3]
  cytotoxicity cell line H (hepatocytes): 3

## FC(F)(F)c1ccccc1-c1ccc(-c2nc(Cl)c(-c3ccccc3)[nH]2)o1 [Compound 65]
[1]; 24 h
  Antibacterial activity Staphylococcus aureus (MSSA): 2 (MIC100 of 11-201 μg/ml)
[1]; [7]
  MIC: 11 to 201 µg/mL (≈ 28.3 to 517 µM)
[3]
  cytotoxicity cell line H (hepatocytes): 2

## Cc1nc(-c2ccc(-c3ccccc3N(C)C)o2)[nH]c1-c1ccccc1 [Compound 71]
[3]
  cytotoxicity cell line H (hepatocytes): 3

## Cc1[nH]c(-c2coc(-c3ccccc3C(F)(F)F)c2)nc1-c1ccccc1 [Compound 72]
[3]
  cytotoxicity cell line H (hepatocytes): 3
[5]
  Antibacterial activity Streptococcus pneumoniae: 2 (MIC100 of 6-10 μg/ml)

## Cc1[nH]c(-c2ccc(-c3ccccc3OC(F)(F)F)o2)nc1-c1ccc(O)cc1 [Compound 76]
[1]; 24 h
  Antibacterial activity Staphylococcus aureus (MSSA): 3 (MIC100 of 3-10 μg/ml)
[5]
  Antibacterial activity Streptococcus pneumoniae: 3 (MIC100 of 2-5 μg/ml)

## Cc1[nH]c(-c2ccc(-c3ccccc3F)o2)nc1-c1ccc(O)cc1 [Compound 77]
[1]; 24 h
  Antibacterial activity Staphylococcus aureus (MSSA): 3 (MIC100 of 3-10 μg/ml)
[5]
  Antibacterial activity Streptococcus pneumoniae: 3 (MIC100 of 2-5 μg/ml)

## COc1ccc(-c2ccc(-c3nc(C)c(-c4ccc(O)cc4)[nH]3)o2)cc1 [Compound 79]
[5]
  Antibacterial activity Streptococcus pneumoniae: 3 (MIC100 of 2-5 μg/ml)

## Cc1nc(-c2ccc(-c3ccc(F)cc3F)o2)[nH]c1-c1ccc(O)cc1 [Compound 80]
[1]; 24 h
  Antibacterial activity Staphylococcus aureus (MSSA): 3 (MIC100 of 3-10 μg/ml)
[4]; 24 h
  Antibacterial activity Staphylococcus aureus (MRSA): 2 (MIC100 of 11-201 μg/ml)
[5]
  Antibacterial activity Streptococcus pneumoniae: 3 (MIC100 of 2-5 μg/ml)

## Brc1ccccc1-c1ccc(-c2ncc(-c3ccccc3)[nH]2)o1 [Compound 83]
[5]
  Antibacterial activity Streptococcus pneumoniae: 3 (MIC100 of 2-5 μg/ml)

## CCCCc1nc(-c2ccc(-c3ccccc3C(F)(F)F)o2)[nH]c1C [Compound 90]
[5]
  Antibacterial activity Streptococcus pneumoniae: 3 (MIC100 of 2-5 μg/ml)

## CCCc1[nH]c(-c2ccc(-c3ccccc3)o2)nc1C [Compound 94]
[4]; 24 h
  Antibacterial activity Staphylococcus aureus (MRSA): 3 (MIC100 of 3-10 μg/ml)
[5]
  Antibacterial activity Streptococcus pneumoniae: 3 (MIC100 of 2-5 μg/ml)

## CCCc1[nH]c(-c2ccc(-c3ccccc3[N+](=O)[O-])o2)nc1C [Compound 97]
[4]; 24 h
  Antibacterial activity Staphylococcus aureus (MRSA): 2 (MIC100 of 11-201 μg/ml)
[5]
  Antibacterial activity Streptococcus pneumoniae: 2 (MIC100 of 6-10 μg/ml)

## CCCc1nc(-c2ccc(-c3ccccc3C)o2)[nH]c1C [Compound 100]
[4]; 24 h
  Antibacterial activity Staphylococcus aureus (MRSA): 2 (MIC100 of 11-201 μg/ml)
[5]
  Antibacterial activity Streptococcus pneumoniae: 3 (MIC100 of 2-5 μg/ml)

## CCCc1[nH]c(-c2ccc(-c3ccccc3C(F)(F)F)o2)nc1C [Compound 101]
[5]
  Antibacterial activity Streptococcus pneumoniae: 3 (MIC100 of 2-5 μg/ml)

## CCCc1nc(-c2ccc(-c3ccccc3OC)o2)[nH]c1C [Compound 102]
[5]
  Antibacterial activity Streptococcus pneumoniae: 3 (MIC100 of 2-5 μg/ml)

## CCCc1nc(-c2ccc(-c3c(C)cccc3C)o2)[nH]c1C [Compound 103]
[4]; 24 h
  Antibacterial activity Staphylococcus aureus (MRSA): 3 (MIC100 of 3-10 μg/ml)
[5]
  Antibacterial activity Streptococcus pneumoniae: 3 (MIC100 of 2-5 μg/ml)

## CCCc1nc(-c2ccc(-c3ccc(C(F)(F)F)cc3)o2)[nH]c1C [Compound 104]
[4]; 24 h
  Antibacterial activity Staphylococcus aureus (MRSA): 3 (MIC100 of 3-10 μg/ml)
[5]
  Antibacterial activity Streptococcus pneumoniae: 3 (MIC100 of 2-5 μg/ml)

## CCCc1[nH]c(-c2ccc(-c3cccc4[nH]ccc34)o2)nc1C [Compound 108]
[4]; 24 h
  Antibacterial activity Staphylococcus aureus (MRSA): 2 (MIC100 of 11-201 μg/ml)
[5]
  Antibacterial activity Streptococcus pneumoniae: 2 (MIC100 of 6-10 μg/ml)

## CCCc1[nH]c(-c2ccc(-c3ccc(O)cc3C(F)(F)F)o2)nc1C [Compound 110]
[4]; 24 h
  Antibacterial activity Staphylococcus aureus (MRSA): 3 (MIC100 of 3-10 μg/ml)
[5]
  Antibacterial activity Streptococcus pneumoniae: 3 (MIC100 of 2-5 μg/ml)

## CCCc1[nH]c(-c2ccc(-c3cc(F)ccc3C(F)(F)F)o2)nc1C [Compound 111]
[5]
  Antibacterial activity Streptococcus pneumoniae: 3 (MIC100 of 2-5 μg/ml)

## COc1cccc(-c2nc(-c3nc(-c4ccccc4)c(C)[nH]3)cs2)c1 [Compound 116]
[5]
  Antibacterial activity Streptococcus pneumoniae: 3 (MIC100 of 2-5 μg/ml)

## Cc1nc(-c2ccc(-c3ccc(O)cc3F)o2)[nH]c1-c1ccc(O)cc1 [Compound 120]
[1]; 24 h
  Antibacterial activity Staphylococcus aureus (MSSA): 2 (MIC100 of 11-201 μg/ml)
[5]
  Antibacterial activity Streptococcus pneumoniae: 3 (MIC100 of 2-5 μg/ml)

## Fc1ccc(-c2ccc(-c3nc4ccccc4[nH]3)o2)cc1 [Compound 121]
[5]
  Antibacterial activity Streptococcus pneumoniae: inactive

## Fc1ccc(-c2ccc(-c3nc4ccccc4[nH]3)o2)c(F)c1 [Compound 122]
[5]
  Antibacterial activity Streptococcus pneumoniae: inactive
